According to ChEMBL document CHEMBL3046656, “Apoptotic effects of some carbazole derivatives on lung carcinoma and glioma cell lines” (Med Chem Res, 2013):
Values after ≈ are worked out from the molar mass of the structure shown. Active and inactive are the calls of the source. The rule behind the calls is not given here.

What was measured:
NIH3T3 = assay: Cytotoxicity against Mus musculus (mouse) NIH/3T3 cells after 24 hr by MTT assay; assay type: cell-based; details: NIH3T3, 24 h
Acetylcholinesterase = Acetylcholinesterase (Electrophorus electricus, UniProt O42275); assay: Inhibition of Electrophorus electricus (electric eel) AChE using acetylthiocholine iodide as substrate incubated for 15 min prior to substrate addition measured after 30 min by Ellman's spectrophotometric method
A549 [1] = assay: Inhibition of nuclear DNA synthesis in Homo sapiens (human) A549 cells assessed as decrease in bromodeoxyuridine incorporation measured during S phase after 24 hr by ELISA; assay type: functional, cell-based
C6 [2] = assay: Inhibition of nuclear DNA synthesis in Rattus norvegicus (rat) C6 cells assessed as decrease in bromodeoxyuridine incorporation measured during S phase after 24 hr by ELISA; assay type: functional, cell-based
A549 [3] = assay: Cytotoxicity against Homo sapiens (human) A549 cells after 24 hr by MTT assay; assay type: functional, cell-based; details: A549, 24 h
[4] = target: Acetylcholinesterase (Electrophorus electricus) (UniProt O42275); assay: Inhibition of Electrophorus electricus (electric eel) AChE using acetylthiocholine iodide as substrate at 80 ug/mL incubated for 15 min prior to substrate addition measured after 30 min by Ellman's spectrophotometric method relative to control
C6 [5] = assay: Cytotoxicity against Rattus norvegicus (rat) C6 cells after 24 hr by MTT assay; assay type: functional, cell-based; details: C6, 24 h
A549 [6] = assay: Inhibition of nuclear DNA synthesis in Homo sapiens (human) A549 cells assessed as decrease in bromodeoxyuridine incorporation measured during S phase at 15.6 to 62.5 ug/mL after 24 hr by ELISA; assay type: functional
A549 [7] = assay: Induction of apoptosis in Homo sapiens (human) A549 cells assessed as viable cells at IC50 after 24 hr by annexin V FITC/propidium iodide staining-based FACS flow cytometric analysis (reference value: 96.5%); assay type: functional
A549 [8] = assay: Induction of necrosis in Homo sapiens (human) A549 cells at IC50 after 24 hr by annexin V FITC/propidium iodide staining-based FACS flow cytometric analysis relative to untreated control; assay type: functional
A549 [9] = assay: Induction of apoptosis in Homo sapiens (human) A549 cells assessed as early apoptotic cells at IC50 after 24 hr by annexin V FITC/propidium iodide staining-based FACS flow cytometric analysis (reference value: 0.5%); assay type: functional
C6 [10] = assay: Induction of necrosis in Rattus norvegicus (rat) C6 cells at IC50 after 24 hr by annexin V FITC/propidium iodide staining-based FACS flow cytometric analysis relative to untreated control; assay type: functional
A549 [11] = assay: Induction of apoptosis in Homo sapiens (human) A549 cells assessed as late apoptotic cells at IC50 after 24 hr by annexin V FITC/propidium iodide staining-based FACS flow cytometric analysis (reference value: 0.4%); assay type: functional
C6 [12] = assay: Induction of apoptosis in Rattus norvegicus (rat) C6 cells assessed as late apoptotic cells at IC50 after 24 hr by annexin V FITC/propidium iodide staining-based FACS flow cytometric analysis (reference value: 1.1%); assay type: functional
C6 [13] = assay: Induction of apoptosis in Rattus norvegicus (rat) C6 cells assessed as early apoptotic cells at IC50 after 24 hr by annexin V FITC/propidium iodide staining-based FACS flow cytometric analysis (reference value: 0.5%); assay type: functional
C6 [14] = assay: Induction of apoptosis in Rattus norvegicus (rat) C6 cells assessed as viable cells at IC50 after 24 hr by annexin V FITC/propidium iodide staining-based FACS flow cytometric analysis (reference value: 96.4%); assay type: functional
C6 [15] = assay: Inhibition of nuclear DNA synthesis in Rattus norvegicus (rat) C6 cells assessed as decrease in bromodeoxyuridine incorporation measured during S phase at 15.6 to 31.2 ug/mL after 24 hr by ELISA; assay type: functional
C6 [16] = assay: Inhibition of nuclear DNA synthesis in Rattus norvegicus (rat) C6 cells assessed as decrease in bromodeoxyuridine incorporation measured during S phase at IC50 after 24 hr by ELISA; assay type: functional
A549 [17] = assay: Inhibition of nuclear DNA synthesis in Homo sapiens (human) A549 cells assessed as decrease in bromodeoxyuridine incorporation measured during S phase at IC50 after 24 hr by ELISA; assay type: functional
C6 [18] = assay: Inhibition of nuclear DNA synthesis in Rattus norvegicus (rat) C6 cells assessed as decrease in bromodeoxyuridine incorporation measured during S phase at 3.9 to 7.8 ug/mL after 24 hr by ELISA; assay type: functional

Sequence of Acetylcholinesterase (O42275 whole entry): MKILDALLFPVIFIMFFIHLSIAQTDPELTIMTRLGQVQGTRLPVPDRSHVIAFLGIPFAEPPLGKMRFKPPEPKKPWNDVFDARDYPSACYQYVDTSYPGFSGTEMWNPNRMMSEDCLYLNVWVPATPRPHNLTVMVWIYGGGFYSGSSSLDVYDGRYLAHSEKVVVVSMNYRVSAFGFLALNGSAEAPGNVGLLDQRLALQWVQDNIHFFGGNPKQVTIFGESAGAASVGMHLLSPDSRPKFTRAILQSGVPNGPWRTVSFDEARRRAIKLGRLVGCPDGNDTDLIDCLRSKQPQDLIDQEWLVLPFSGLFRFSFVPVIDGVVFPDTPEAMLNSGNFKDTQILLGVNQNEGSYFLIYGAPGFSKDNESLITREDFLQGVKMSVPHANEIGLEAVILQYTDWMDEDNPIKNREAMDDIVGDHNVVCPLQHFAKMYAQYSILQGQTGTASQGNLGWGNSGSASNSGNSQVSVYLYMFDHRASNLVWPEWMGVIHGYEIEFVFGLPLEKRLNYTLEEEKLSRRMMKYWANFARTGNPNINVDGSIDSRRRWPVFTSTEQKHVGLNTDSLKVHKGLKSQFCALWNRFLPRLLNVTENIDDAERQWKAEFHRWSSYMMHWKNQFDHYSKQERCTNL
Sequence of Acetylcholinesterase (Electrophorus electricus) (O42275 24-633 limits assumed): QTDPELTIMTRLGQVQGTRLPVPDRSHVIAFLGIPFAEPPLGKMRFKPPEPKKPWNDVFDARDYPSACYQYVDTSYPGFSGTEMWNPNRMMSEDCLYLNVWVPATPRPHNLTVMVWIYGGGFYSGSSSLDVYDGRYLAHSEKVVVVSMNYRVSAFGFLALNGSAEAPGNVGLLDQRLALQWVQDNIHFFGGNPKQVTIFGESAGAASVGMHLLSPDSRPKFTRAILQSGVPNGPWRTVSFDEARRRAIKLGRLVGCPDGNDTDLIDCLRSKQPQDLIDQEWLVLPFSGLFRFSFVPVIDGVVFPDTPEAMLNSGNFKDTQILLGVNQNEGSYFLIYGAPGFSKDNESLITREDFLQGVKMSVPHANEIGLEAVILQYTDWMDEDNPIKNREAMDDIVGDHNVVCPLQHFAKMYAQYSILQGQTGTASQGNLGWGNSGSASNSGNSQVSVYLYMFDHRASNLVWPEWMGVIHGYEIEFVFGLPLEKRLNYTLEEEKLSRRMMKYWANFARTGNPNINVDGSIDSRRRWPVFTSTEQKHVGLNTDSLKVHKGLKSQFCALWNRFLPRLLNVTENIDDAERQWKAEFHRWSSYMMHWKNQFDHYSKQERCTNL

SMILES | IC50 (NIH3T3) [µg/mL] | IC50 (Acetylcholinesterase) [µM] | inhibition (A549 [1]) | inhibition (C6 [2]) | IC50 (A549 [3]) [µg/mL] | inhibition [4] [%] | IC50 (C6 [5]) [µg/mL] | inhibition (A549 [6]) | other results
CCN(CC)C(=S)SCC(=O)Nc1ccc2c(c1)c1ccccc1n2CC | 390 (≈ 976 µM) | > 200 | Dose-dependent effect | Dose-dependent effect | 41.7 (≈ 104 µM) | 18.3 | 64.3 (≈ 161 µM) | Active | 
CCN1CCN(C(=S)SCC(=O)Nc2ccc3c(c2)c2ccccc2n3CC)CC1 | < 3.9 | > 182 | Dose-dependent effect | Dose-dependent effect | 61.7 (≈ 140 µM) | 19.6 | 20 (≈ 45.4 µM) | Active | 
CCn1c2ccccc2c2cc(NC(=O)CSC(=S)N3CCC(C)CC3)ccc21 | > 500 | > 188 | Dose-dependent effect | Dose-dependent effect | 313 (≈ 736 µM) | 23.6 | 167 (≈ 392 µM) | Active | 
CCn1c2ccccc2c2cc(NC(=O)CSC(=S)N3CCN(C)CC3)ccc21 | 48.7 (≈ 114 µM) | > 188 | Dose-dependent effect | Dose-dependent effect | 34.3 (≈ 80.4 µM) | 21.1 | 21.3 (≈ 49.9 µM) |  | Activity (A549 [7]): 94.5%; Activity (A549 [8]): 3.3%; Activity (A549 [9]): 1.8%; Activity (C6 [10]): 0%; Activity (A549 [11]): 0.4%; Activity (C6 [12]): 8.8%; Activity (C6 [13]): 7.3%; Activity (C6 [14]): 82.3%; inhibition (INH) (C6 [15]): 45.5%; inhibition (INH) (A549 [6]): 46.6%
CCn1c2ccccc2c2cc(NC(=O)CSC(=S)N3CCN(c4ccccc4)CC3)ccc21 | 357 (≈ 730 µM) | > 164 | Dose-dependent effect | Dose-dependent effect | 193 (≈ 395 µM) | 26.6 | 143 (≈ 293 µM) | Active | 
CCn1c2ccccc2c2cc(NC(=O)CSC(=S)N3CCCCC3)ccc21 | 393 (≈ 956 µM) | > 194 | Dose-dependent effect | Dose-dependent effect | 177 (≈ 429 µM) | 11.3 | 198 (≈ 482 µM) | Active | 
CCn1c2ccccc2c2cc(NC(=O)CSC(=S)N3CCN(Cc4ccccc4)CC3)ccc21 | 110 (≈ 218 µM) | > 159 | Dose-dependent effect | Dose-dependent effect | 107 (≈ 212 µM) | 12.8 | 170 (≈ 338 µM) | Active | 
CCn1c2ccccc2c2cc(NC(=O)CSC(=S)N3CCOCC3)ccc21 | 127 (≈ 306 µM) | > 193 | Dose-dependent effect | Dose-dependent effect | 25.7 (≈ 62.1 µM) | 15.4 | 180 (≈ 435 µM) | Active | 
O=C1c2c(O)ccc(O)c2C(=O)c2c(NCCNCCO)ccc(NCCNCCO)c21 [MITOXANTRONE] |  |  | Dose-dependent effect | Dose-dependent effect | 25.3 (≈ 56.9 µM) |  | 10.9 (≈ 24.5 µM) |  | inhibition (INH) (C6 [16]): 84.6%; inhibition (INH) (A549 [17]): 67.3%
CCn1c2ccccc2c2cc(NC(=O)CSC(=S)N3CCN(CCN(C)C)CC3)ccc21 | 44.3 (≈ 91.6 µM) | 15.5 | Dose-dependent effect | Dose-dependent effect | 41 (≈ 84.8 µM) | 91.3 | 5.9 (≈ 12.2 µM) |  | Activity (A549 [7]): 65%; Activity (A549 [8]): 16.6%; Activity (A549 [9]): 10.3%; Activity (C6 [10]): 0.2%; Activity (A549 [11]): 8.1%; Activity (C6 [12]): 11.5%; Activity (C6 [13]): 83.7%; inhibition (INH) (C6 [18]): 87.1%; Activity (C6 [14]): 4.7%; inhibition (INH) (A549 [6]): 53.4%
CCn1c2ccccc2c2cc(NC(=O)CSC(=S)N3CCCC3)ccc21 | 270 (≈ 679 µM) | > 201 | Dose-dependent effect | Dose-dependent effect | 193 (≈ 486 µM) | 9.05 | 75 (≈ 189 µM) | Active | 
CCn1c2ccccc2c2cc(NC(=O)CSC(=S)N3CCCCC3C)ccc21 (stereo unspecified) | 257 (≈ 603 µM) | > 188 | Dose-dependent effect | Dose-dependent effect | 29.3 (≈ 68.8 µM) | 18 | 26.7 (≈ 62.7 µM) |  | Activity (A549 [7]): 93.3%; Activity (A549 [8]): 2.9%; Activity (A549 [9]): 2.8%; Activity (C6 [10]): 0.3%; Activity (A549 [11]): 1%; Activity (C6 [12]): 5.1%; Activity (C6 [13]): 6.2%; Activity (C6 [14]): 88.3%; inhibition (INH) (C6 [15]): 48.3%; inhibition (INH) (A549 [6]): 71.2%
